# Results published in publication PMC5046073, “Prediction and evaluation of the lipase inhibitory activities of tea polyphenols with 3D-QSAR models” (Scientific Reports, 2016).
# Target: T1, pancreatic lipase (Sus scrofa, UniProt P00591)
# T1 construct: gene PNLIP
# T1 sequence (P00591 1-450): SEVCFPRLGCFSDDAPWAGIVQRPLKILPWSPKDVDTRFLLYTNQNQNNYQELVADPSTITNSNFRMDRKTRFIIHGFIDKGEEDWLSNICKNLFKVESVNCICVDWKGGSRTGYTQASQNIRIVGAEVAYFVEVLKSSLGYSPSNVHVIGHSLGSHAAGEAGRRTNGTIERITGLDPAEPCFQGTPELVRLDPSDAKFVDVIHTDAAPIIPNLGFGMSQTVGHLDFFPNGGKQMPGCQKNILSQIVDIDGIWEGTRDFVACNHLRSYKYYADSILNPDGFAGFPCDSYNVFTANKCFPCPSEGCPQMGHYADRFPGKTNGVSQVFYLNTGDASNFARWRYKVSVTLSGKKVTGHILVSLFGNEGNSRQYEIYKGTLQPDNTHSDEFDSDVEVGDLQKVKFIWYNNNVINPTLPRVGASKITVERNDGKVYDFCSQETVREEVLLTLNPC
# Assay: fluorescent 4-MU oleate hydrolysis assay, type VI-S pancreatic lipase
# Type: biochemical
# Details: not given
row,Molecule,IC50
1,"O=C(OC1Cc2c(O)cc(O)c(Cc3c(O)cc(O)c4c3OC(c3cc(O)c(O)c(O)c3)C(OC(=O)c3cc(O)c(O)c(O)c3)C4)c2OC1c1cc(O)c(O)c(O)c1)c1cc(O)c(O)c(O)c1 (centres unmarked) [compound 20, oolonghomobisflavan A]",110 nM
2,(−)-epicatechin-3-O-gallate [compound 4],340 nM
3,"O=C(O[C@@H]1Cc2c(O)cc(O)cc2O[C@@H]1c1cc(O)c(O)c(O)c1-c1c([C@H]2Oc3cc(O)cc(O)c3C[C@H]2OC(=O)c2cc(O)c(O)c(O)c2)cc(O)c(O)c1O)c1cc(O)c(O)c(O)c1 [compound 35, theasinensin A]",150 nM
4,"O=C(Oc1cc(O)cc2c1C[C@@H](OC(=O)c1cc(O)c(O)c(O)c1)[C@@H](c1cc(O)c(O)c(O)c1)O2)c1cc(O)c(O)c(O)c1 [compound 8, (−)-epigallocatechin-3,5-di-O-gallate]",110 nM
5,(−)-epigallocatechin-3-O-gallate [compound 7],390 nM
6,"O=C(O[C@@H]1Cc2c(O)cc(O)cc2O[C@@H]1c1cc(O)c(O)c2c(=O)c(O)cc([C@H]3Oc4cc(O)cc(O)c4C[C@H]3O)cc12)c1cc(O)c(O)c(O)c1 [compound 33, theaflavin-3′-O-gallate]",130 nM
7,"O=C(O[C@@H]1[C@@H](c2c(O)cc(O)c3c2O[C@H](c2cc(O)c(O)c(O)c2)[C@H](OC(=O)c2cc(O)c(O)c(O)c2)C3)c2c(O)cc(O)cc2O[C@@H]1c1cc(O)c(O)c(O)c1)c1cc(O)c(O)c(O)c1 [compound 29, prodelphinidin B2-3,3′-di-O-gallate]",100 nM

# Target: T1, pancreatic lipase
# Assay: biochemical
# Details: not given
row,IC50,Molecule
1,300 nM,"O=C(O[C@@H]1Cc2c(O)cc(O)cc2O[C@@H]1c1cc(O)c(O)c(O)c1-c1c([C@H]2Oc3cc(O)cc(O)c3C[C@H]2O)cc(O)c(O)c1O)c1cc(O)c(O)c(O)c1 [compound 36, theasinensin B]"
2,17300 nM,"Oc1cc(O)c2c(c1)O[C@H](c1ccc(O)c(O)c1)[C@@H](O)[C@@H]2c1c(O)cc(O)c2c1O[C@H](c1ccc(O)c(O)c1)[C@H](O)C2 [compound 25, procyanidin B4]"
3,16400 nM,"Oc1cc(O)c2c(c1)O[C@H](c1cc(O)c(O)c(O)c1-c1c([C@H]3Oc4cc(O)cc(O)c4C[C@H]3O)cc(O)c(O)c1O)[C@H](O)C2 [compound 37, theasinensin C]"
4,3240 nM,"Oc1cc(O)c2c(c1)O[C@H](c1cc(O)c(O)c(O)c1)[C@H](O)[C@H]2c1c(O)cc(O)c2c1O[C@H](c1cc(O)c(O)c(O)c1)[C@H](O)C2 [compound 27, prodelphinidin B2]"
5,6850 nM,"Oc1cc(O)c2c(c1)O[C@H](c1cc(O)c(O)c(O)c1)[C@@H](O)[C@@H]2c1c(O)cc(O)c2c1O[C@H](c1cc(O)c(O)c(O)c1)[C@H](O)C2 [compound 30, prodelphinidin B4]"
6,570 nM,"O=C(O[C@@H]1Cc2c(O)cc(O)cc2O[C@H]1c1cc(O)c(O)c(O)c1)c1cc(O)c(O)c(O)c1 [compound 6, (−)-gallocatechin-3-O-gallate (GCG)]"
7,970 nM,"O=C(/C=C/c1ccc(O)cc1)O[C@@H]1Cc2c(O)cc(O)cc2O[C@@H]1c1cc(O)c(O)c(O)c1 [compound 10, (−)-epigallocatechin-3-O-p-coumaroate]"
8,> 30000 nM,"Oc1cc(O)c2c(c1)O[C@H](c1ccc(O)c(O)c1)[C@H](O)C2 [compound 3, (−)-epicatechin (EC)]"
9,740 nM,"COc1cc(C(=O)O[C@@H]2Cc3c(O)cc(O)cc3O[C@@H]2c2ccc(O)c(O)c2)cc(O)c1O [compound 9, (−)-epicatechin 3-O-(3′-O-methyl)-gallat]"
10,8750 nM,"Oc1cc(O)c2c(c1)O[C@H](c1ccc(O)c(O)c1)[C@H](O)[C@H]2c1c(O)cc(O)c2c1O[C@H](c1ccc(O)c(O)c1)[C@H](O)C2 [compound 23, procyanidin B2]"
11,2810 nM,"O=C(O[C@@H]1Cc2c(O)cc(O)cc2O[C@@H]1c1ccc(O)cc1)c1cc(O)c(O)c(O)c1 [compound 15, (−)-epiafzelechin 3-O-gallate]"
12,3280 nM,"Oc1cc(O)c2c(c1)O[C@H](c1ccc(O)c(O)c1)[C@@H](O)[C@@H]2c1c(O)cc(O)c2c1O[C@H](c1ccc(O)c(O)c1)[C@@H](O)C2 [compound 24, procyanidin B3]"
13,8700 nM,"Oc1cc(O)c2c(c1)O[C@H](c1ccc(O)c(O)c1)[C@@H](O)[C@@H]2c1c(O)cc(O)c2c1O[C@H](c1cc(O)c(O)c(O)c1)[C@H](O)C2 [compound 16, (+)-catechin (4α-8) (−)-epigallocatechin]"

# Same assay, conditions: inhibitor
row,IC50,Molecule
1,690 nM,"O=C(O[C@@H]1[C@@H](c2c(O)cc(O)c3c2O[C@H](c2ccc(O)c(O)c2)[C@H](OC(=O)c2cc(O)c(O)c(O)c2)C3)c2c(O)cc(O)cc2O[C@@H]1c1cc(O)c(O)c(O)c1)c1cc(O)c(O)c(O)c1 [compound 14, (−)-epigallocatechin-3-O-gallate-(4β-8)-(−)-epicatechin 3-O-gallate]"
2,130 nM,"O=C(OC1Cc2c(O)cc(O)c(C(c3cc(O)c(O)c(O)c3)C(Cc3c(O)cc(O)cc3O)OC(=O)c3cc(O)c(O)c(O)c3)c2OC1c1cc(O)c(O)c(O)c1)c1cc(O)c(O)c(O)c1 (centres unmarked) [compound 1, assamicain A]"
3,160 nM,"O=C(O[C@@H]1Cc2c(O)cc(O)c([C@H]3c4c(O)cc(O)cc4O[C@H](c4ccc(O)c(O)c4)[C@@H]3O)c2O[C@@H]1c1cc(O)c(O)c(O)c1)c1cc(O)c(O)c(O)c1 [compound 11, (−)-epicatechin(4β-8)-(−)-epigallocatechin 3-O-gallate]"
4,1230 nM,"O=C(O[C@@H]1Cc2c(O)cc(O)c([C@H]3c4c(O)cc(O)cc4O[C@H](c4cc(O)c(O)c(O)c4)[C@@H]3O)c2O[C@@H]1c1ccc(O)c(O)c1)c1cc(O)c(O)c(O)c1 [compound 12, (−)-epigallocatechin (4β-8)-(−)-epicatechin-3-O-gallate]"
5,930 nM,"O=C(O[C@@H]1[C@@H](c2c(O)cc(O)c3c2O[C@H](c2cc(O)c(O)c(O)c2)[C@H](OC(=O)c2cc(O)c(O)c(O)c2)C3)c2c(O)cc(O)cc2O[C@@H]1c1ccc(O)c(O)c1)c1cc(O)c(O)c(O)c1 [compound 13, (−)-epicatechin-3-O-gallate-(4β-8)-(−)-epigallocatechin3-O-gallate]"
6,190 nM,"O=C(O[C@@H]1Cc2c(O)cc(O)c([C@@H]3c4c(O)cc(O)cc4O[C@H](c4ccc(O)c(O)c4)[C@H]3O)c2O[C@@H]1c1cc(O)c(O)c(O)c1)c1cc(O)c(O)c(O)c1 [compound 17, (+)-catechin (4α-8) (−)-epigallocatechin 3-O-gallate]"
